The record followed here is US20260027101A1, “BACTERIAL TOPOISOMERASE INHIBITORS” (priority 2022, published 2026).

Common to all, as to type: cell-based
Experiment [1] relates to Acinetobacter baumanii ATCC 19606. Nature of the experiment: MIC, Acinetobacter baumanii ATCC 19606. Conditions: Acinetobacter baumannii. The procedure: (§1) Minimum inhibitory concentrations (MICs) were determined in triplicate according to Clinical and Laboratory Standards Institute (CLSI) guidelines using one or more strains of S. aureus or selected Gram-negative bacteria. […] Compounds were also assayed using a USA300 (Hidron, A. I., et al., Emergence of Community-Acquired Meticillin-Resistant Staphylococcus aureus Strain USA300 as a Cause of Necrotising Community-Onset Pneumonia. Lancet Infect. Dis. 2009, 9. 384-392) isolate of MRSA as well as a S. aureus strain isolated from a cystic fibrosis patient.

Experiment [2] concerns Pseudomonas aeruginosa ATCC 27853. Briefly: MIC, Pseudomonas aeruginosa ATCC 27853. As for the experimental part: as §1
Experiment [3] deals with Staphylococcus aureus USA300 (MRSA isolate). Briefly: MIC, S. aureus USA300 MRSA isolate (CLSI). Conditions: read-out: MIC against Staphylococcus aureus USA300. The procedure:
as §1

Experiment [4] relates to Staphylococcus aureus ATCC 29213. Briefly: MIC, S. aureus ATCC 29213 (CLSI). The procedure: as §1
Experiment [5] concerns Staphylococcus aureus CF isolate. Nature of the experiment: MIC, S. aureus cystic fibrosis isolate (CLSI). Conditions: read-out: MIC against Staphylococcus aureus CF isolate. As for the experimental part: as §1
For experiment [6], the system named is Staphylococcus aureus D83N (29213-derived strain, GyrA substitution). Nature of the experiment: microbe, parasite or virus in culture. Conditions: read-out: MIC against Staphylococcus aureus D83N. The procedure:
as §1

The test system of experiment [7] is Staphylococcus aureus M121K (29213-derived strain, GyrA substitution). Nature of the experiment: microbe, parasite or virus in culture. The following applies: read-out: MIC against Staphylococcus aureus M121K. As for the experimental part: as §1
Experiment [8] concerns Salmonella enterica 14028 ΔtolC (efflux-deficient strain). Briefly: microbe, parasite or virus in culture. The following applies: for MIC: Salmonella enterica, read-out: MIC against Salmonella enterica 14028 ΔtolC. The procedure:
as §1

For experiment [9], the system named is Escherichia coli ATCC 25922. Nature of the experiment: MIC, Escherichia coli ATCC 25922. The procedure:
as §1

The test system of experiment [10] is Salmonella enterica ATCC 14028. Nature of the experiment: MIC, Salmonella enterica ATCC 14028. The procedure: as §1
[11] abbreviates: ATCC19606, strain ATCC 19606, read-out: MIC against Acinetobacter baumanii ATCC 19606.
Where [12] appears, read: ATCC27853, strain ATCC 27853, read-out: MIC against Pseudomonas aeruginosa ATCC 27853.
The mark [13] stands for this setting: USA300 MRSA isolate, ciprofloxacin-resistant.
Setting [14] is: ATCC29213, strain ATCC 29213, triplicate, CLSI, read-out: MIC against Staphylococcus aureus ATCC 29213.
Setting [15] is: ATCC25922, strain ATCC 25922, read-out: MIC against Escherichia coli ATCC 25922.
Setting [16] is: ATCC14028, strain ATCC 14028, read-out: MIC against Salmonella enterica ATCC 14028.
Where [17] appears, read: ATCC19606, read-out: MIC against Acinetobacter baumanii ATCC 19606.
Setting [18] is: ATCC27853, read-out: MIC against Pseudomonas aeruginosa ATCC 27853.
Setting [19] is: ATCC29213, read-out: MIC against Staphylococcus aureus ATCC 29213.
Where [20] appears, read: ATCC25922, read-out: MIC against Escherichia coli ATCC 25922.
The mark [21] stands for this setting: ATCC14028, read-out: MIC against Salmonella enterica ATCC 14028.

Each structure is given as a SMILES string. In brackets after ≈: the same amount, converted by molar mass. Like-named read-outs stand apart in the source and are kept apart here.

Take `COc1ccc2ncc(F)c(CCN3CCC([C@@H]4OC(=O)O[C@H]4c4ccc(C)cc4)CC3)c2n1` [Example 31, (4S,5S)-4-(1-(2-(3-fluoro-6-methoxy-1,5-naphthyridin-4-yl)ethyl)piperidin-4-yl)-5-(p-tolyl)-1,3-dioxolan-2-one]: the MIC in experiment [1] (setting [11]) is 64 µg/mL (≈ 137 µM); in experiment [2] (setting [12]) it was above 64 µg/mL; in experiment [3] (setting [13]), 2 µg/mL (≈ 4.3 µM); in experiment [4] (setting [14]), 2 µg/mL (≈ 4.3 µM); in experiment [5] (isolate from individual with cystic fibrosis), 4 µg/mL (≈ 8.59 µM); in experiment [6] it was above 32 µg/mL. Besides, the MIC in experiment [7] was above 32 µg/mL; in experiment [8] it was 8 µg/mL (≈ 17.2 µM); in experiment [9] (setting [15]) it was above 64 µg/mL; in [10] (setting [16]), above 64 µg/mL.

On to `COc1ccc2ncc(F)c(CCN3CCC(/C=C\c4ccc5c(c4)OCCO5)CC3)c2n1` [Example 11, (Z)-8-(2-(4-(2-(2,3-dihydrobenzo[b][1,4]dioxin-6-yl)vinyl)piperidin-1-yl)ethyl)-7-fluoro-2-methoxy-1,5-naphthyridine], for which the MIC in experiment [1] (setting [17]) is 64 µg/mL (≈ 142 µM); in [2] (setting [18]) it was 64 µg/mL (≈ 142 µM); in experiment [3], 8 µg/mL (≈ 17.8 µM); in experiment [4] (setting [19]), 8 µg/mL (≈ 17.8 µM); in experiment [5], 9 µg/mL (≈ 20 µM); in experiment [6], above 16 µg/mL. Moreover, the MIC in experiment [7] was above 16 µg/mL; in experiment [8] it was 4 µg/mL (≈ 8.9 µM); in experiment [9] (setting [20]), above 64 µg/mL; in [10] (setting [21]), above 64 µg/mL.

Regarding `COc1ccc2ncc(F)c(CCN3CCC(/C=C/c4ccc5c(c4)OCCO5)CC3)c2n1` [Example 2, (E)-8-(2-(4-(2-(2,3-dihydrobenzo[b][1,4]dioxin-6-yl)vinyl)piperidin-1-yl)ethyl)-7-fluoro-2-methoxy-1,5-naphthyridine], the MIC was determined as 8 µg/mL (≈ 17.8 µM) in experiment [1] (setting [17]); 64 µg/mL (≈ 142 µM) in experiment [2] (setting [18]); 0.5 µg/mL (≈ 1.11 µM) in experiment [3]; 0.25 µg/mL (≈ 0.556 µM) in [4] (setting [19]); 0.5 µg/mL (≈ 1.11 µM) in [5]; 2 µg/mL (≈ 4.45 µM) in [6]. The MIC in experiment [7] was found to be 2 µg/mL (≈ 4.45 µM); in [9] (setting [20]), 8 µg/mL (≈ 17.8 µM); in experiment [10] (setting [21]), 64 µg/mL (≈ 142 µM). Further, in experiment [8] (efflux-deficient strain), the “MIC against Salmonella enterica 14028 ΔtolC” value was found to be 0.125 µg/mL (≈ 0.278 µM).

On to `COc1ccc2ncc(F)c(CCN3CCC(C(=O)Cc4ccc(C)cc4)CC3)c2n1` [Example 22, 1-(1-(2-(3-fluoro-6-methoxy-1,5-naphthyridin-4-yl)ethyl)piperidin-4-yl)-2-(p-tolyl)ethan-1-one], for which the MIC in experiment [1] (setting [17]) is 32 µg/mL (≈ 75.9 µM); in [2] (setting [18]), above 64 µg/mL; in [3] it was 0.125 to 0.5 µg/mL (≈ 0.297 to 1.19 µM); in [4] (setting [19]), 0.125 µg/mL (≈ 0.297 µM); in experiment [5], 0.125 to 0.5 µg/mL (≈ 0.297 to 1.19 µM); in [6], 4 µg/mL (≈ 9.49 µM). For the same molecule, the MIC in experiment [7] is 8 µg/mL (≈ 19 µM); in [8], 0.5 µg/mL (≈ 1.19 µM); in experiment [9] (setting [20]) it was 16 µg/mL (≈ 38 µM); in experiment [10] (setting [21]), 64 µg/mL (≈ 152 µM).

On to `COc1ccc2ncc(F)c(CCN3CCC(/C=C/c4ccc5c(c4)NC(=O)CO5)CC3)c2n1` [Example 3, (E)-6-(2-(1-(2-(3-fluoro-6-methoxy-1,5-naphthyridin-4-yl)ethyl)piperidin-4-yl)vinyl)-2H-benzo[b][1,4]oxazin-3(4H)-one], for which the MIC in experiment [1] (setting [17]) is 8 µg/mL (≈ 17.3 µM); in [2] (setting [18]), 4 µg/mL (≈ 8.65 µM); in [3], at most 0.25 µg/mL; in experiment [4] (setting [19]) it was 0.5 µg/mL (≈ 1.08 µM); in experiment [5], 1 µg/mL (≈ 2.16 µM); in experiment [6], 16 µg/mL (≈ 34.6 µM). For the same molecule, the MIC in [7] amounted to 16 µg/mL (≈ 34.6 µM); in experiment [8], 0.25 µg/mL (≈ 0.541 µM); in experiment [9] (setting [20]) it was 4 µg/mL (≈ 8.65 µM); in experiment [10] (setting [21]), 16 µg/mL (≈ 34.6 µM).

Regarding `O=c1ccc2ncc(=O)n3c2n1C[C@H]3CN1CCC(NCc2cc3c(cn2)OCCC3)CC1` [gepotidacin, reference compound], the MIC in experiment [1] (setting [11]) lay within 32 to 64 µg/mL (≈ 71.3 to 143 µM); in experiment [2] (setting [12]), 2 to 16 µg/mL (≈ 4.46 to 35.7 µM); in experiment [3] (setting [13]), 0.125 to 1 µg/mL (≈ 0.279 to 2.23 µM); in experiment [4] (setting [14]) it was 0.25 to 1 µg/mL (≈ 0.557 to 2.23 µM); in [5] it was 0.125 to 0.5 µg/mL (≈ 0.279 to 1.11 µM); in experiment [6], 4 to 32 µg/mL (≈ 8.92 to 71.3 µM). In addition, the MIC in experiment [7] was 8 to 32 µg/mL (≈ 17.8 to 71.3 µM); in experiment [8], 0.125 to 0.5 µg/mL (≈ 0.279 to 1.11 µM); in experiment [9] (setting [15]), 0.5 to 2 µg/mL (≈ 1.11 to 4.46 µM); in experiment [10] (setting [16]), 2 to 8 µg/mL (≈ 4.46 to 17.8 µM).
